Assay results taken from patent publication US20060045910A1, “Preserved fusogenic vesicles” (priority 2004, published 2006).

Test system: rat cardiomyocyte cells
Assay: Uptake of ATP by rat cardiomyocyte cells (FIG. 5)
Assay type: cell-based
From the text: While not wishing to be bound by any specific theory, it is currently believed that the dehydration of the vesicles that occurs during freeze-drying causes more ATP to enter the fusogenic vesicles. In this manner, the preserved and re-hydrated fusogenic vesicles may contain a higher concentration of ATP than their unpreserved counterparts.

SMILES: Nc1ncnc2c1ncn2[C@@H]1O[C@H](COP(=O)(O)OP(=O)(O)OP(=O)(O)O)[C@@H](O)[C@H]1O [unencapsulated ATP, adenosine triphosphate]
- uptake of ATP by cells: barely absorbed
